From the OligoGym collection come the findings set out here.

“And” between values parts separate entries of the source, which are not always exact repeats. Identical values can stand only once. After the bases stand the sugars from the 5' end (letter, count) and the backbone: PS all phosphorothioate, else s phosphorothioate and o phosphodiester by linkage. Methylation of C is not given here. e = 2'-O-(2-methoxyethyl) (MOE); d = 2'-deoxy (DNA)

For the series, the target named is DGAT2. Particulars: ASO.

As for “GAATGCACTGAGTTTCTGCT (sugars e5 d10 e5, PS)”, the target mRNA inhibition is, setting by setting: (HepG2, 2.5 µM) 73% and 63%; (HepG2, 10 µM) 92% and 87%.

As to “TAAGGGTATTCTGCTCATAA (sugars e5 d10 e5, PS)”, the target mRNA inhibition came to 63% (HepG2, 2.5 µM) and 93% (HepG2, 10 µM).

In the case of “CACCTGTTACTACATGTCTA (sugars e5 d10 e5, PS)”, the target mRNA inhibition amounted to 68% (HepG2, 2.5 µM) and 93% (HepG2, 10 µM).

Regarding “TTGGAGTAGGGCACCAGCCC (sugars e5 d10 e5, PS)”, for the setting “HepG2, 0.12 µM”, the target mRNA inhibition came to 16%.

“GCAGGACCCCGGAGTAGGCG (sugars e2 d13 e5, PS)” yielded a target mRNA inhibition (HepG2, 0.12 µM) of 68%.

In the case of “GTCACTGACTCACAACAGCA (sugars e5 d10 e5, PS)”, the target mRNA inhibition (HepG2, 2.5 µM) came to 58% and the target mRNA inhibition (HepG2, 10 µM) is 92%.

As for “TTGAAATCCAATGCACCTTG (sugars e5 d10 e5, PS)”, the target mRNA inhibition is, setting by setting: (HepG2, 2.5 µM) 62%; (HepG2, 10 µM) 93%.

With “CCACTGGAGCACTGAGATGA (sugars e2 d13 e5, PS)”, the target mRNA inhibition (HepG2, 0.12 µM) worked out at 54%.

With “GGCAAAGTAACATACCTGCT (sugars e5 d10 e5, PS)”, the target mRNA inhibition by setting is: (HepG2, 2.5 µM) 72% and 91%; (HepG2, 10 µM) 94%.

Turning to “GTAAGGGTATTCTGCTCATA (sugars e5 d10 e5, PS)”, the target mRNA inhibition (HepG2, 10 µM) was 86% and 95%.

“TCTTGCCAGGCATGGAGCTC (sugars e5 d10 e5, PS)” had a target mRNA inhibition (HepG2, 0.12 µM) of 47%.

For the sequence “CACTCTGTGATGCTCTGGAG (sugars e5 d10 e5, PS)”, the target mRNA inhibition was 60% (HepG2, 2.5 µM) and 84% (HepG2, 10 µM).

For the sequence “GTGTCTTCACCAGCTGGATG (sugars e5 d10 e5, PS)”, the target mRNA inhibition (HepG2, 0.12 µM) amounted to 49% and the target mRNA inhibition (HepG2, 2.5 µM) is 16%.

Regarding “GCATGCTTCCTCCCACTTCA (sugars e5 d10 e5, PS)”, the target mRNA inhibition reads like this: (HepG2, 2.5 µM) 84%; (HepG2, 10 µM) 76%.

With “GTGGTCAGCAGGTTGTGTGT (sugars e5 d10 e5, PS)”, the target mRNA inhibition by setting is: (HepG2, 0.12 µM) 44%; (HepG2, 2.5 µM) 0%.

Where the note is “HepG2, 0.12 µM”, “AGCATTGCCACTCCCATTCT (sugars e5 d10 e5, PS)” had a target mRNA inhibition of 74%.

Under “HepG2, 0.12 µM”, “GGACAGGAGGGTCACACACA (sugars e5 d10 e5, PS)” returned a target mRNA inhibition of 45%.

For “AGCAATGCCAATGCCTAGGT (sugars e5 d10 e5, PS)”, the target mRNA inhibition reads like this: (HepG2, 2.5 µM) 82%; (HepG2, 10 µM) 93%.

“TCTGGAACTTCTTCTGGACC (sugars e5 d10 e5, PS)” registered a target mRNA inhibition (HepG2, 0.12 µM) of 43%.

Turning to “GTCAGCAGGTTGTGTGTCTT (sugars e3 d14 e3, PS)”, the target mRNA inhibition (HepG2, 0.12 µM) amounted to 61%.

In the case of “TTCATCTTTCCAGATCCGGA (sugars e5 d10 e5, PS)”, the target mRNA inhibition (HepG2, 2.5 µM) worked out at 71% and the target mRNA inhibition (HepG2, 10 µM) came out at 92%.

“TCACCAGGGCCTCCATGTAC (sugars e2 d13 e5, PS)” had a target mRNA inhibition (HepG2, 0.12 µM) of 3%.

Take “AGCTCTCAAGTCTTCCTCCT (sugars e5 d10 e5, PS)”: the target mRNA inhibition is, setting by setting: (HepG2, 2.5 µM) 62% and 76%; (HepG2, 10 µM) 89% and 92%.

Consider “TTTCCTTCTTAAAAAAGACC (sugars e5 d10 e5, PS)”, for which, where the note is “HepG2, 0.12 µM”, the target mRNA inhibition came out at 9%.

Under “HepG2, 0.12 µM”, “GTCAGCAGGTTGTGTGTCTT (sugars e2 d13 e5, PS)” gave a target mRNA inhibition of 58%.

As to “TCCTGGTCCCAGTACTTTCT (sugars e5 d10 e5, PS)”, the target mRNA inhibition is 71% and 73% (HepG2, 2.5 µM); 91% and 92% (HepG2, 10 µM).

“GTATCCAAAGATATAGTTCC (sugars e5 d10 e5, PS)”: the target mRNA inhibition (HepG2, 0.12 µM) was determined as 8%.

“CATGGAGCTCAGAGACTCAG (sugars e2 d13 e5, PS)” showed a target mRNA inhibition (HepG2, 0.12 µM) of 71%.

Consider “ATACCTCCAGACATCAGGTA (sugars e5 d10 e5, PS)”, for which the target mRNA inhibition (HepG2, 0.12 µM) amounted to 50%.

In the case of “TATTTGAAGATAAAGTCAGA (sugars e5 d10 e5, PS)”, the target mRNA inhibition (HepG2, 0.12 µM) was determined as 0%.

Sequence “AAGGCACCCAGGCCCATGAT (sugars e5 d10 e5, PS)” showed a target mRNA inhibition (HepG2, 0.12 µM) of 46%.

Sequence “TTGAAAGCAAATAGTCTATG (sugars e5 d10 e5, PS)” returned a target mRNA inhibition (HepG2, 0.12 µM) of 42%.

On to “TCACATGCCTGAGGGCAGCA (sugars e5 d10 e5, PS)”, for which the target mRNA inhibition amounted to 66% (HepG2, 2.5 µM) and 86% (HepG2, 10 µM).

Turning to “GCGCGATTCACTGAGGACCT (sugars e5 d10 e5, PS)”, the target mRNA inhibition is 75% (HepG2, 2.5 µM) and 76% (HepG2, 10 µM).

“AGAGAGACAATGAGTAAGGG (sugars e5 d10 e5, PS)”: the target mRNA inhibition (HepG2, 2.5 µM) was determined as 68% and the target mRNA inhibition (HepG2, 10 µM) was determined as 79%.

As for “TTAAATAACCCACAGACACC (sugars e5 d10 e5, PS)”, for the setting “HepG2, 0.12 µM”, the target mRNA inhibition worked out at 0%.

“CCTCGAAGATCACCTGCTTG (sugars e5 d10 e5, PS)” had a target mRNA inhibition (HepG2, 0.12 µM) of 53%.

Consider “GCTGGTGTTCTACAAGCTGC (sugars e5 d10 e5, PS)”, for which the target mRNA inhibition runs as follows: (HepG2, 2.5 µM) 79% and 81% and 83%; (HepG2, 10 µM) 90% and 86% and 88%.

“TCAGAGACTCAGCCGCACCC (sugars e2 d13 e5, PS)” registered a target mRNA inhibition (HepG2, 0.12 µM) of 56%.

As for “ATAGCATTGCCACTCCCATT (sugars e5 d10 e5, PS)”, the target mRNA inhibition (HepG2, 0.12 µM) was determined as 57%.

“ATGGAGCTCAGAGACTCAGC (sugars e3 d14 e3, PS)” displayed a target mRNA inhibition (HepG2, 0.12 µM) of 71%.
